{"source": "patent US10246456B2", "about": "“IRAK4 inhibiting agents” (BIOGEN MA INC., priority 2014, dated 2019)"}
{"target": "IRAK4 (Homo sapiens (Human), UniProt Q9NWZ3)", "sequence (Q9NWZ3 whole entry, species assumed)": "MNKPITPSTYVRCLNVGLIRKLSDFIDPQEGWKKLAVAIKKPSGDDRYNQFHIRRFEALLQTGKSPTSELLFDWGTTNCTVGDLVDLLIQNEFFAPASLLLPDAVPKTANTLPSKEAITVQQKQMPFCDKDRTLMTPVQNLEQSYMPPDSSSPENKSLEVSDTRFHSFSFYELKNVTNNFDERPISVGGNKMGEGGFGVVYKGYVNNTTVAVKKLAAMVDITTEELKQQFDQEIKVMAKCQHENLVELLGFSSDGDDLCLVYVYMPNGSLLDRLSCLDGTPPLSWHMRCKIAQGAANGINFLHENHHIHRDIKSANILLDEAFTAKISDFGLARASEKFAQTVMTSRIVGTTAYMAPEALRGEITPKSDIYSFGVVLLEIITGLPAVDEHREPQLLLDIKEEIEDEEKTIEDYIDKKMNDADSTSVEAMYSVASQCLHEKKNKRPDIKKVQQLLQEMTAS", "experiment": "IRAK-4 AlphaScreen biochemical kinase assay", "settings": "1 nM IRAK4, 1 mM ATP, 3.5 h at RT", "how_it_was_run": "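AlphaScreen read-out: streptavidin beads bind the biotinylated peptide and protein A beads bind the anti-phosphothreonine antibody, so energy transfer reports phosphorylation of the peptide. The kinase is human IRAK-4.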", "units": {"IC50": "nM"}}
{"smiles": "N#CCNC(=O)c1cc(-c2ccc3cnn(-c4cccc(C(F)(F)F)n4)c3c2)cc(N)n1", "note": "[Example 87, 6-amino-N-(cyanomethyl)-4-(1-(6-(trifluoromethyl)pyridin-2-yl)-1H-indazol-6-yl)picolinamide]", "IC50": "100 to 1000"}
{"smiles": "CC(N)c1cccc(-c2ccc3cnn(-c4cccc(C(C)(C)C)n4)c3c2)n1", "note": "(stereo not shown) [Example 286, 1-(6-(1-(6-(tert-butyl)pyridin-2-yl)-1H-indazol-6-yl)pyridin-2-yl)ethanamine]", "IC50": "< 100"}
{"smiles": "Cc1cccc(-n2ncc3ccc(-c4cccc(C5(C(N)=O)CCC5)n4)cc32)n1", "note": "[Example 312, 1-(6-(1-(6-methylpyridin-2-yl)-1H-indazol-6-yl)pyridin-2-yl)cyclobutanecarboxamide]", "IC50": "< 100"}
{"smiles": "CC(N)c1cccc(-c2cc(C(=O)N(C)C)c3cnn(-c4cccc(C(F)(F)F)n4)c3c2)n1", "note": "(stereo not shown) [Example 58, 6-(6-(1-aminoethyl)pyridin-2-yl)-N,N-dimethyl-1-(6-(trifluoromethyl)pyridin-2-yl)-1H-indazole-4-carboxamide]", "IC50": "100 to 1000"}
{"smiles": "CC(N)c1cccc(-c2ccc3cnn(-c4cccc(C(C)(C)S(C)(=O)=O)n4)c3c2)n1", "note": "(stereo not shown) [Example 289, 1-(6-(1-(6-(2-(methylsulfonyl)propan-2-yl)pyridin-2-yl)-1H-indazol-6-yl)pyridin-2-yl)ethanamine]", "IC50": "1000 to 10000"}
{"smiles": "COCCOc1cc(-c2cccc(C3(N)CCCC3)n2)cc2c1cnn2-c1cccc(CO)n1", "note": "[Example 469, (6-(6-(6-(1-aminocyclopentyl)pyridin-2-yl)-4-(2-methoxyethoxy)-1H-indazol-1-yl)pyridin-2-yl)methanol]", "IC50": "< 100"}
{"smiles": "CN(C)CCNC(=O)c1cccc(-n2ncc3ccc(-c4cncc(N)c4)cc32)n1", "note": "[Example 69, 6-(6-(5-aminopyridin-3-yl)-1H-indazol-1-yl)-N-(2-(dimethylamino)ethyl)picolinamide]", "IC50": "1000 to 10000"}
{"smiles": "Cc1cccc(-n2ncc3ccc(-c4cc(N)cc(C(C)N)n4)cc32)n1", "note": "(stereo not shown) [Example 256, 2-(1-aminoethyl)-6-(1-(6-methylpyridin-2-yl)-1H-indazol-6-yl)pyridin-4-amine]", "IC50": "< 100"}
{"smiles": "Cc1cccc(-n2ncc3ccc(-c4cccc5c4CN(C)C5)cc32)n1", "note": "[Example 17, 6-(2-methylisoindolin-4-yl)-1-(6-methylpyridin-2-yl)-1H-indazole]", "IC50": "1000 to 10000"}
{"smiles": "N[C@@H](CF)c1cccc(-c2ccc3cnn(-c4cccc(CO)n4)c3c2)n1", "note": "[Example 589, (R)-(6-(6-(6-(1-amino-2-fluoroethyl)pyridin-2-yl)-1H-indazol-1-yl)pyridin-2-yl)methanol]", "IC50": "< 100"}
{"smiles": "N#Cc1cccc(-n2ncc3ccc(-c4cncc(N)c4)cc32)c1", "note": "[Example 33, 3-(6-(5-aminopyridin-3-yl)-1H-indazol-1-yl)benzonitrile]", "IC50": "100 to 1000"}
{"smiles": "CCC[C@H](N)c1cccc(-c2cc(N3CCOCC3=O)c3cnn(-c4cccc(CO)n4)c3c2)n1", "note": "[Example 351, (S)-4-(6-(6-(1-aminobutyl)pyridin-2-yl)-1-(6-(hydroxymethyl)pyridin-2-yl)-1H-indazol-4-yl)morpholin-3-one]", "IC50": "100 to 1000"}
{"smiles": "Cc1cccc(-n2ncc3ccc(-c4cccc(C(N)C(F)(F)F)n4)cc32)n1", "note": "(stereo not shown) [Example 259, 2,2,2-trifluoro-1-(6-(1-(6-methylpyridin-2-yl)-1H-indazol-6-yl)pyridin-2-yl)ethanamine]", "IC50": "100 to 1000"}
{"smiles": "C[C@H](N)c1cccc(-c2cc(-c3ccncn3)c3cnn(-c4cccc(CO)n4)c3c2)n1", "note": "[Example 393, (S)-(6-(6-(6-(1-aminoethyl)pyridin-2-yl)-4-(pyrimidin-4-yl)-1H-indazol-1-yl)pyridin-2-yl)methanol]", "IC50": "< 100"}
{"smiles": "Cc1csc(-n2ncc3ccc(-c4cccc(C(C)N)n4)cc32)n1", "note": "(stereo not shown) [Example 134, 1-(6-(1-(4-methylthiazol-2-yl)-1H-indazol-6-yl)pyridin-2-yl)ethanamine]", "IC50": "100 to 1000"}
{"smiles": "COCCOc1cc(-c2cccc([C@H](N)C(F)CCO)n2)cc2c1cnn2-c1cccc(CO)n1", "note": "(stereo partly drawn) [Example 431, (4S)-4-amino-3-fluoro-4-(6-(1-(6-(hydroxymethyl)pyridin-2-yl)-4-(2-methoxyethoxy)-1H-indazol-6-yl)pyridin-2-yl)butan-1-ol]", "IC50": "100 to 1000"}
{"smiles": "Cc1cccc(-n2ncc3cc(C)c(-c4cncc(N)c4)cc32)n1", "note": "[Example 44, 5-(5-methyl-1-(6-methylpyridin-2-yl)-1H-indazol-6-yl)pyridin-3-amine]", "IC50": "1000 to 10000"}
{"smiles": "Cc1cccc(-n2ncc3ccc(-c4csc(C(C)N)n4)cc32)n1", "note": "(stereo not shown) [Example 310, 1-(4-(1-(6-methylpyridin-2-yl)-1H-indazol-6-yl)thiazol-2-yl)ethanamine]", "IC50": "< 100"}
{"smiles": "Cc1cccc(-n2ncc3ccc(-c4cccc(C5(C#N)CCC5)n4)cc32)n1", "note": "[Example 304, 1-(6-(1-(6-methylpyridin-2-yl)-1H-indazol-6-yl)pyridin-2-yl)cyclobutanecarbonitrile]", "IC50": "< 100"}
{"smiles": "CCC[C@H](N)c1cccc(-c2cc(-c3ncccn3)c3cnn(-c4cccc(CO)n4)c3c2)n1", "note": "[Example 384, (S)-(6-(6-(6-(1-aminobutyl)pyridin-2-yl)-4-(pyrimidin-2-yl)-1H-indazol-1-yl)pyridin-2-yl)methanol]", "IC50": "< 100"}
{"smiles": "CN(C)C(=O)c1cc(-c2cncc(N)c2)cc2c1cnn2-c1cccc(C(F)(F)F)n1", "note": "[Example 60, 6-(5-aminopyridin-3-yl)-N,N-dimethyl-1-(6-(trifluoromethyl)pyridin-2-yl)-1H-indazole-4-carboxamide]", "IC50": "1000 to 10000"}
{"smiles": "Nc1cncc(-c2ccc3cnn(-c4cccc(C(=O)O)n4)c3c2)c1", "note": "[Example 30, 6-(6-(5-aminopyridin-3-yl)-1H-indazol-1-yl)picolinic acid]", "IC50": "100 to 1000"}
{"smiles": "N#CCCCNC(=O)c1cccc(-n2ncc3ccc(-c4cncc(N)c4)cc32)n1", "note": "[Example 71, 6-(6-(5-aminopyridin-3-yl)-1H-indazol-1-yl)-N-(3-cyanopropyl)picolinamide]", "IC50": "100 to 1000"}
{"smiles": "NC(=O)c1cc(-c2cncc(N)c2)cc2c1cnn2-c1cccc(C(F)(F)F)n1", "note": "[Example 52, 6-(5-aminopyridin-3-yl)-1-(6-(trifluoromethyl)pyridin-2-yl)-1H-indazole-4-carboxamide]", "IC50": "< 100"}
{"smiles": "CC(N)c1cccc(-c2ccc3cnn(-c4cccc(C(F)(F)F)n4)c3c2)n1", "note": "(single isomer, unassigned; isomer a) [Example 83, 1-(6-(1-(6-(trifluoromethyl)pyridin-2-yl)-1H-indazol-6-yl)pyridin-2-yl)ethanamine-isomer A]", "IC50": "< 100"}
{"smiles": "OCc1cccc(-n2ncc3ccc(-c4cccc(C5CCCN5)n4)cc32)n1", "note": "(stereo not shown) [Example 571, (6-(6-(6-(pyrrolidin-2-yl)pyridin-2-yl)-1H-indazol-1-yl)pyridin-2-yl)methanol]", "IC50": "100 to 1000"}
{"smiles": "Cc1cc(C#N)cc(-n2ncc3ccc(-c4cncc(N)c4)cc32)n1", "note": "[Example 34, 2-(6-(5-aminopyridin-3-yl)-1H-indazol-1-yl)-6-methylisonicotinonitrile]", "IC50": "100 to 1000"}
{"smiles": "C/C(=N/O)c1cccc(-c2cc(Cl)c3cnn(-c4cccc(C)n4)c3c2)n1", "note": "[Example 219, (Z)-1-(6-(4-chloro-1-(6-methylpyridin-2-yl)-1H-indazol-6-yl)pyridin-2-yl)ethanone oxime]", "IC50": "1000 to 10000"}
{"smiles": "CCC[C@H](N)c1cncc(-c2ccc3cnn(-c4cccc(CO)n4)c3c2)n1", "note": "[Example 407, (S)-(6-(6-(6-(1-aminobutyl)pyrazin-2-yl)-1H-indazol-1-yl)pyridin-2-yl)methanol]", "IC50": "< 100"}
{"smiles": "Cn1ccc(-c2cc(-c3cccc([C@@H](N)CCCO)n3)cc3c2cnn3-c2cccc(CO)n2)n1", "note": "[Example 395, (S)-4-amino-4-(6-(1-(6-(hydroxymethyl)pyridin-2-yl)-4-(1-methyl-1H-pyrazol-3-yl)-1H-indazol-6-yl)pyridin-2-yl)butan-1-ol]", "IC50": "< 100"}
{"tested_on": "IL-6 in A549 cells", "experiment": "Cell-based IL-6 ELISA assay in IL-1beta stimulated A549 cells", "settings": "2 ng/ml human IL-1beta overnight", "procedure": "The cell-based assays is based on IL-6 ELISA quantification. Briefly, A549 cells are cultured in DMEM with 10% FBS medium. When cells reach 80% confluence they are trypsin treated and seeded 180 ul/well in 96-well plate at 2.5×10^4 cells/well. Then, 20 ul of compound serial dilutions (starting at 10 uM, 10 points) are added to the cell plate; incubate for 30 min at 37 C and stimulated with 2 ng/ml human IL-1beta 37 C, 5% CO2 overnight. The next day 100 ul of cell supernatant per well are analyzed on a Human IL-6 Quantikine ELISA kit from R&D Systems.", "units": {"EC50": "nM"}}
{"smiles": "CCC[C@H](N)c1cccc(-c2cc(N3CCC3)c3cnn(-c4cccc(CO)n4)c3c2)n1", "note": "[Example 345, (S)-(6-(6-(6-(1-aminobutyl)pyridin-2-yl)-4-(azetidin-1-yl)-1H-indazol-1-yl)pyridin-2-yl)methanol]", "EC50": "≤ 1000"}
{"smiles": "CCC[C@H](N)c1cccc(-c2cc(N3CCOCC3)c3cnn(-c4cccc(CO)n4)c3c2)n1", "note": "[Example 339, (S)-(6-(6-(6-(1-aminobutyl)pyridin-2-yl)-4-morpholino-1H-indazol-1-yl)pyridin-2-yl)methanol]", "EC50": "≤ 1000"}
{"smiles": "CCc1cccc(-c2cc(-c3nnc(C)o3)c3cnn(-c4cccc(CO)n4)c3c2)n1", "note": "[Example 358, (6-(6-(6-ethylpyridin-2-yl)-4-(5-methyl-1,3,4-oxadiazol-2-yl)-1H-indazol-1-yl)pyridin-2-yl)methanol]", "EC50": "≤ 1000"}
{"smiles": "CCC[C@H](N)c1cccc(-c2cc(N3CCCCC3)c3cnn(-c4cccc(CO)n4)c3c2)n1", "note": "[Example 324, (S)-(6-(6-(6-(1-aminobutyl)pyridin-2-yl)-4-(piperidin-1-yl)-1H-indazol-1-yl)pyridin-2-yl)methanol]", "EC50": "≤ 1000"}
{"smiles": "C[C@H](N)c1cccc(-c2cc(F)c3cnn(-c4cccc(CO)n4)c3c2)n1", "note": "[Example 475, (6-{6-[6-((S)-1-Amino-ethyl)-pyridin-2-yl]-4-fluoro-indazol-1-yl}-pyridin-2-yl)-methanol]", "EC50": "≤ 1000"}
{"smiles": "CCC(O)C(N)c1cccc(-c2ccc3cnn(-c4cccc(CO)n4)c3c2)n1", "note": "(stereo not shown) [Example 516, 1-amino-1-(6-(1-(6-(hydroxymethyl)pyridin-2-yl)-1H-indazol-6-yl)pyridin-2-yl)butan-2-ol]", "EC50": "≤ 1000"}
{"smiles": "CC(O)CC(N)c1cccc(-c2ccc3cnn(-c4cccc(CO)n4)c3c2)n1", "note": "(stereo not shown) [Example 525, 4-amino-4-(6-(1-(6-(hydroxymethyl)pyridin-2-yl)-1H-indazol-6-yl)pyridin-2-yl)butan-2-ol]", "EC50": "≤ 1000"}
